Laboratory results from ChEMBL document CHEMBL5528050, “Discovery of a Novel Series of Homo sapiens Caseinolytic Protease P Agonists for Colorectal Adenocarcinoma Treatment via ATF3-Dependent Integrated Stress Response” (J Med Chem, 2024).
The source made the active and inactive calls. The calls are words filed in the database; no cut-off is given here.

How the values were obtained:
Staphylococcus aureus [1] = test: Antibacterial activity against Staphylococcus aureus ATCC29213 assessed as reduction in bacterial growth; format: functional
Staphylococcus aureus [2] = test: Antibacterial activity against Staphylococcus aureus ATCC33591 assessed as reduction in bacterial growth; format: functional
Staphylococcus aureus [3] = test: Antibacterial activity against Staphylococcus aureus ATCC43300 assessed as reduction in bacterial growth; format: functional
Escherichia coli = test: Antibacterial activity against Escherichia coli ATCC25922 assessed as reduction in bacterial growth; format: functional
[4] = Antiproliferative activity against HEK293 cells assessed as inhibition of cell growth measured after 72 hrs by CCK-8 method; format: toxicity, cell-based; details: human
HCT-116 [5] = test: Inhibition of mitochondrial function in human HCT-116 cells assessed as reduction in ATP production; format: functional, cell-based
HCT-116 [6] = test: Antiproliferative activity against human HCT-116 cells assessed reduction in clone formation measured after 48 hrs by crystal violet staining based analysis; format: functional, cell-based
HCT-116 [7] = test: Induction of apoptosis in human HCT-116 cells measured after 48 hrs by annexin V-FITC/7-AAD based flow cytometry analysis; format: functional, cell-based
HCT-116 [8] = test: Induction of apoptosis in human HCT-116 cells assessed as apoptotic rate at low dose measured after 48 hrs by annexin V-FITC/7-AAD based flow cytometry analysis relative to control; format: functional
HCT-116 [9] = test: Induction of apoptosis in human HCT-116 cells assessed as cell death at 2 uM measured after 48 hrs by annexin V-FITC/7-AAD based flow cytometry analysis relative to control; format: functional
HCT-116 [10] = test: Induction of apoptosis in human HCT-116 cells assessed as reduction in SDHB expression measured after 48 hrs by Western blot analysis; format: functional, cell-based; details: dose 0.5-2 µM
HCT-116 [11] = test: Induction of apoptosis in human HCT-116 cells assessed as upregulation of bax expression at 0.5 to 2 uM measured after 48 hrs by Western blot analysis; format: functional, cell-based; details: dose 0.5-2 µM
HCT-116 [12] = test: Induction of cell cycle arrest in human HCT-116 cells assessed as increase in number of cells at G2 phase at high dose measured after 48 hrs by PI staining based flow cytometry analysis; format: functional
[13] = Acute toxicity in BALB/c mouse assessed as survival at 50 mg/kg, iv administered as single dose measured upto 14 days; format: organism-based; details: in vivo, 336 h, time < 14 day
[14] = Acute toxicity in BALB/c mouse assessed as effect on heart at 50 mg/kg, iv administered as single dose measured upto 14 days by H and E staining based analysis; format: organism-based; details: in vivo, 336 h, time < 14 day
[15] = Acute toxicity in BALB/c mouse assessed as effect on liver at 50 mg/kg, iv administered as single dose measured upto 14 days by H and E staining based analysis; format: organism-based; details: in vivo, 336 h, time < 14 day
[16] = Acute toxicity in BALB/c mouse assessed as effect on spleen at 50 mg/kg, iv administered as single dose measured upto 14 days by H and E staining based analysis; format: organism-based; details: in vivo, 336 h, time < 14 day
[17] = Acute toxicity in BALB/c mouse assessed as effect on lung at 50 mg/kg, iv administered as single dose measured upto 14 days by H and E staining based analysis; format: organism-based; details: in vivo, 336 h, time < 14 day
[18] = Acute toxicity in BALB/c mouse assessed as effect on kidney at 50 mg/kg, iv administered as single dose measured upto 14 days by H and E staining based analysis; format: organism-based; details: in vivo, 336 h, time < 14 day
[19] = Acute toxicity in BALB/c mouse assessed as increase in body weight at 5 mg/kg, iv measured upto 21 days relative to control; format: organism-based; details: in vivo, 504 h, time < 21 day
HCT-116 [20] = test: Antitumor activity against human HCT-116 cells xenografted in BALB/c nude mouse model assessed as reduction in tumor volume at 1.25 mg/kg,iv administered twice weekly and measured upto 21 days relative to control; format: functional; design: scale not given: the % may be the effect or the level left; details: time <= 21 day
HCT-116 [21] = test: Antitumor activity against human HCT-116 cells xenografted in BALB/c nude mouse model assessed as reduction in tumor volume at 2.5 mg/kg,iv administered twice weekly and measured upto 21 days relative to control; format: functional; design: scale not given: the % may be the effect or the level left; details: time <= 21 day
HCT-116 [22] = test: Antitumor activity against human HCT-116 cells xenografted in BALB/c nude mouse model assessed as decrease in Bcl-2 expression at upto 5 mg/kg, iv administered twice weekly by Western blot analysis; format: functional, organism-based
HCT-116 [23] = test: Antitumor activity against human HCT-116 cells xenografted in BALB/c nude mouse model assessed as increase in Bax expression at upto 5 mg/kg, iv administered twice weekly by Western blot analysis; format: functional, organism-based
[24] = Toxicity in BALB/c nude mouse assessed as effect on heart at 1.25 to 5 mg/kg, iv administered twice weekly and measured after 21 days by H and E staining based analysis; format: organism-based; details: in vivo, 504 h, dose 1.25-5 mg/kg, time 21 day
[25] = Toxicity in BALB/c nude mouse assessed as effect on spleen at 1.25 to 5 mg/kg, iv administered twice weekly and measured after 21 days by H and E staining based analysis; format: organism-based; details: in vivo, 504 h, dose 1.25-5 mg/kg, time 21 day
[26] = MRT (0 to 24 hrs) in Sprague-Dawley rat at 10 mg/kg, iv by LC-MS/MS analysis; format: ADME, organism-based; details: in vivo
[27] = AUC (0 to 12hrs) in Sprague-Dawley rat at 10 mg/kg, po by LC-MS/MS analysis; format: ADME, organism-based; details: in vivo
[28] = Metabolic stability in human liver microsomes assessed as half life at 1 uM measured upto 60 mins in presence of NADPH regenerating system by LC-MS/MS analysis; format: ADME, Microsome
[29] = Metabolic stability in rat liver microsomes assessed as intrinsic clearance at 1 uM measured upto 60 mins in presence of NADPH regenerating system by LC-MS/MS analysis; format: ADME, Microsome; details: read-out: CLH
HCT-116 [30] = test: Upregulation of DDIT3 mRNA expression in human HCT-116 cells by RT-PCR analysis; format: functional, cell-based
HCT-116 [31] = test: Upregulation of ID1 expression in human HCT-116 cells measured after 48 hrs by Western blot analysis; format: functional, cell-based
HCT-116 [32] = test: Upregulation of ASNS expression in human HCT-116 cells measured after 48 hrs by Western blot analysis; format: functional, cell-based
HCT-116 [33] = test: Upregulation of GCLC expression in human HCT-116 cells measured after 48 hrs by Western blot analysis; format: functional, cell-based
HCT-116 [34] = test: Effect on […] expression in ClpP knockdown human HCT-116 cells at 2 uM measured after 48 hrs by Western blot analysis; format: functional, cell-based
HCT-116 [35] = test: Effect on DDIT3 expression in ClpP knockdown human HCT-116 cells at 2 uM measured after 48 hrs by Western blot analysis; format: functional, cell-based
HCT-116 [36] = test: Effect on DDIT4 expression in ClpP knockdown human HCT-116 cells at 2 uM measured after 48 hrs by Western blot analysis; format: functional, cell-based
HCT-116 [37] = test: Effect on JUN expression in ClpP knockdown human HCT-116 cells at 2 uM measured after 48 hrs by Western blot analysis; format: functional, cell-based
SW-620 = test: cells; details: Homo sapiens, SW-620, 72 h
Description: Antiproliferative activity against human SW-620 cells assessed as inhibition of cell growth measured after 72 hrs by CCK-8 method

HCT-15 = test: cells; details: Homo sapiens, HCT-15, 72 h
Description: Antiproliferative activity against human HCT-15 cells assessed as inhibition of cell growth measured after 72 hrs by CCK-8 method

SW480 = test: cells; details: Homo sapiens, SW480, 72 h
Description: Antiproliferative activity against human SW480 cells assessed as inhibition of cell growth measured after 72 hrs by CCK-8 method

## N#Cc1cccc(CN2CCC=C(C(=O)NCc3ccc(C(F)(F)F)cc3)C2)c1
Staphylococcus aureus [1]
  MIC: > 128 µg/mL
Staphylococcus aureus [2]
  MIC: > 128 µg/mL
Staphylococcus aureus [3]
  MIC: > 128 µg/mL
Escherichia coli
  MIC: > 128 µg/mL
[4]
  IC50 at 72 h: 78.1 µM
HCT-116 [5]
  inhibition: Active
HCT-116 [6]
  Activity: Dose-Dependent Effect
HCT-116 [7]
  Activity: Dose-Dependent Effect
HCT-116 [8]
  Activity: 22%
HCT-116 [9]
  Activity: 60%
HCT-116 [10]
  Activity: Dose-Dependent Effect
HCT-116 [11]
  Activity: Active
HCT-116 [12]
  Activity: ~40%
[13]
  Activity: Non-Toxic
[14]
  Activity: Non-Toxic
[15]
  Activity: Non-Toxic
[16]
  Activity: Non-Toxic
[17]
  Activity: Non-Toxic
[18]
  Activity: Non-Toxic
[19]
  Activity: Toxic
HCT-116 [20]
  Activity: 55.1%
HCT-116 [21]
  Activity: 70%
HCT-116 [22]
  Activity: Active
HCT-116 [23]
  Activity: Active
[24]
  Activity: Non-Toxic
[25]
  Activity: Non-Toxic
[26]
  MRT last: 3.1 h
[27]
  AUC(0-t): 777 ng·h/mL
[28]
  half-life at 1 µM: 6.1 min
[29]
  CLint scaled at 1 µM: 305 mL/min/kg
HCT-116 [30]
  Activity: Active
HCT-116 [31]
  Activity: Active
HCT-116 [32]
  Activity: Active
HCT-116 [33]
  Activity: Active
HCT-116 [34]
  Activity: inactive
HCT-116 [35]
  Activity: inactive
HCT-116 [36]
  Activity: inactive
HCT-116 [37]
  Activity: inactive
SW-620
  IC50: 1.5 µM
HCT-15
  IC50: 3.5 µM
SW480
  IC50: 5.4 µM
